Paper PMC5395648, “Targeted Modification of a Novel Amphibian Antimicrobial Peptide from Phyllomedusa tarsius to Enhance Its Activity against MRSA and Microbial Biofilm” (Frontiers in Microbiology, 2017)
≈ marks a conversion by molar mass, not a printed value. Non-standard residues stand in square brackets, D forms with d. Residues, ends and D or L forms follow the SMILES beside them. No end group written: not given here.

How the values were obtained:
S. aureus biofilm = assay type: cell-based, Staphylococcus aureus; details: for MBEC: 48 h
Method: MBIC and MBEC assays were performed using microtiter plates based on a modified 2,3,5-triphenyl tetrazolium chloride (TTC) method (Sabaeifard et al., [2014]). Overnight cultures were washed with sterile phosphate-buffered saline (PBS) and diluted with fresh broth to 10^7 CFU/ml. […] For the MBEC assay, 200 μl of inoculum was placed in a flat-bottomed microtiter plate for 48 h to form mature biofilms. Following sufficient growth time, mature biofilms were washed twice to remove the planktonic cells and incubated with a series of peptide concentrations (1–512 μg/ml) at 37°C for 20–24 h. After sufficient growth, plates were washed twice with sterile PBS followed by the addition of fresh medium (200 μl per well) and stained with 50 μl 1% TTC (g/v) solution for 5 h. After incubation, 200 μl of the supernatant from each well were transferred to a new plate and their absorbance values were measured at 470 nm using a Synergy HT plate reader (BioTek, USA).

horse erythrocytes = assay type: cell-based
Method: The haemolysis assay was performed by mixing the peptides with mammalian erythrocytes obtained from fresh defibrinated horse blood. An appropriate volume of horse blood was transferred and washed with PBS until the supernatant was clear. A series of peptide solutions were incubated with a 2% suspension of red blood cells at final concentrations of 1-512 μg/ml at 37°C for 2 h. For positive and negative controls, the red blood cells were incubated with 1% Triton-X 100 and PBS, respectively. After incubation, 200 μl of the supernatant from each sample was transferred to a microtiter plate and the absorbance at 550 nm was measured with a Synergy HT plate reader (BioTek, USA). The therapeutic index (TI), a parameter recommended by the US FDA to indicate safety/efficacy usage, was calculated as the peptide concentration causing 50% haemolysis of the red bloods cells (HC50) divided by the geometric mean of the peptide MICs against the relevant bacteria (GM). […] In the former case, the MIC that was used when no inhibition was observed was the 2-fold maximum tested value ([…] al., [2016]). Data were analyzed to obtain the mean and standard error of responses. The statistical analyses were performed by one-way ANOVA and the statistical significance of the differences was indicated as ^*p < 0.05, ^**p < 0.01, ^***p < 0.001, and ^****p < 0.0001. The dose-response curves were constructed using a “best-fit” algorithm and HC50 was calculated through the data analysis package provided in GraphPad Prism 6 (GraphPad Software, USA).

[1] = system: Staphylococcus aureus (NCTC10788)
Method: (§1) The antimicrobial activity of each synthetic peptide was evaluated using the broth dilution method (Wiegand et al., [2008]). In brief, different concentrations of the peptides were incubated with microorganisms under defined conditions. Six different microorganisms were used in the assay: the Gram-positive bacteria Staphylococcus aureus (NCTC10788), Enterococcus faecalis (NCTC12697), and methicillin-resistant Staphylococcus aureus (MRSA) (NCTC 12493); the Gram-negative bacteria Escherichia coli (NCTC 10418) and Pseudomonas aeruginosa (ATCC 27853); and the yeast Candida albicans (NCYC 1467). Each microorganism was cultured in fresh Mueller-Hinton broth (MHB) overnight and then subcultured in fresh medium to a cell density equivalent to 10^8 colony-forming units (CFU)/ml. The microbial suspension was diluted with fresh MHB to a concentration of 1 × 10^5 CFU/ml. Peptide samples were dissolved in the culture medium MHB to prepare a 100-fold stock solutions and then 1 μl of each peptide solution was mixed with 99 μl of diluted bacterial culture to get a final concentration range from 1 to 512 μg/ml in two-fold dilution. […] From these wells, 10 μl of the overnight culture were added to a Mueller-Hinton agar (MHA) plate and cultured at 37°C for 16–20 h.

[2] = system: methicillin-resistant Staphylococcus aureus (MRSA) (NCTC 12493)
Method: as §1

[3] = system: Enterococcus faecalis (NCTC12697)
Method: as §1

[4] = system: Candida albicans (NCYC 1467)
Method: as §1

[5] = system: Escherichia coli (NCTC 10418)
Method: as §1

[6] = system: Pseudomonas aeruginosa (ATCC 27853)
Method: as §1

Method for E. coli: The stability of the peptides was investigated by incubating them with serum and evaluating the loss of antimicrobial activity. […] Following a 4 h incubation at 37°C, the peptide solutions were briefly centrifuged and 1 μl of each concentration was mixed with 99 μl of diluted bacterial culture (5 × 10^5 CFU/ml) in a 96-well plate. The plate was then incubated at 37°C for 16–20 h. The MICs in the presence of serum were determined by use of a Synergy HT plate reader (BioTek, USA).

Compound	MBIC (S. aureus biofilm)	MBEC (S. aureus biofilm)	HC50 (horse erythrocytes)	MBC [1]	MIC [1]	MBC [2]	MIC [2]	MBC [3]	MIC [3]	MBC [4]	MIC [4]	MBC [5]	MIC [5]	MBC [6]	MIC [6]	MIC after serum degradation 4 h (E. coli)	haemolytic activity (in words) (horse erythrocytes)
CC[C@H](C)[C@H](NC(=O)[C@H](C)NC(=O)[C@H](CCCCN)NC(=O)[C@@H](NC(=O)[C@H](C)NC(=O)[C@@H](NC(=O)[C@@H]1CCCN1C(=O)[C@@H](NC(=O)[C@H](CCSC)NC(=O)CNC(=O)[C@@H](CC(C)C)NC(=O)[C@@H](N)CC(C)C)[C@@H](C)CC)C(C)C)[C@@H](C)CC)C(=O)N[C@@H](CO)C(=O)N[C@@H](C)C(=O)N[C@@H](CC(C)C)C(=O)N[C@@H](CO)C(=O)N[C@@H](CCCCN)C(=O)N[C@@H](CC(C)C)C(N)=O [medusin-PT1a] (H-L[dL]GMIPVAIKAISALSKL-NH2)	32 µg/mL	64 µg/mL	226.7 µg/mL	16 µg/mL (≈ 8.71 µM)	8 µg/mL (≈ 4.35 µM)	32 µg/mL (≈ 17.4 µM)	16 µg/mL (≈ 8.71 µM)	32/32 μg/ml	32/32 μg/ml	8/8 μg/ml	8/8 μg/ml	128/128 μg/ml	128/128 μg/ml	> 512 µg/mL	128 µg/mL (≈ 69.7 µM)	–	–
LLGMIKVAITAISALSKL-NH2 [medusin-PT2]	32 µg/mL	256 µg/mL	93.83 µg/mL	16 µg/mL	8 µg/mL	32/32 μg/ml	32/32 μg/ml	32/32 μg/ml	32/32 μg/ml	8/8 μg/ml	8/8 μg/ml	–	–	>512/>512 μg/ml	–	–	–
LLGMIPVAIKAISALSKL-NH2 [medusin-PT1]	32 µg/mL	128 µg/mL	102.2 µg/mL	16 µg/mL	8 µg/mL	32 µg/mL	16 µg/mL	32/32 μg/ml	32/32 μg/ml	16/16 μg/ml	16/16 μg/ml	–	–	>512/>512 μg/ml	>512/>512 μg/ml	> 512 µg/mL	–
LLGMIPVAITAISALSKL-NH2 [medusin-PT]	512 µg/mL	>512 µg/mL	1.814e+06 µg/mL	128 µg/mL	64 µg/mL	>512/>512 μg/ml	>512/>512 μg/ml	>512/>512 μg/ml	>512/>512 μg/ml	>512/>512 μg/ml	>512/>512 μg/ml	>512/>512 μg/ml	–	>512/>512 μg/ml	–	–	extremely low haemolytic activity
